Results from US20140336196A1, “PHOSPHORIC ACID SALTS OF SITAGLIPTIN” (Merck Sharp & Dohme Corp., priority 2011, published 2014).
Structures can show the parent of a compound that is named as a salt.

Test: Physical stability of the crystalline salt at elevated temperature and humidity
Format: physicochemical

For `N[C@@H](CC(=O)N1CCn2c(nnc2C(F)(F)F)C1)Cc1cc(F)c(F)cc1F` [Bis-[(2R)-4-oxo-4-[3-(trifluoromethyl)-5,6-dihydro[1,2,4]triazolo[4,3-a]pyrazin-7(8H)-yl]-1-(2,4,5-trifluorophenyl)butan-2-amine]phosphoric acid trihydrate salt], the “stability at elevated temperature and humidity” value (elevated temperature and humidity (general statement)) was “unexpectedly stable” and the physical stability (solid crystalline salt, 40° C. at 75% relative humidity for 2 weeks) was “physically stable”.
